Active and inactive are the calls of the source. The rule behind the calls is not given here.
Columns and labels:
Ishikawa = test: Antiproliferative activity against human Ishikawa cells at 20 uM incubated for 3 days by MTT assay relative to control; format: functional; details: 72 h, time 3 day
MCF7 [1] = test: Antiproliferative activity against human MCF7 cells incubated for 5 days by MTT assay; format: functional, cell-based; details: MCF7, 120 h
MCF7 [2] = test: Induction of cell cycle arrest at G0/G1 phase in human MCF7 cells at 10 uM incubated for 24 hrs by PI/RNase staining based flow cytometry (reference value: 53.5 +/- 1.96 %); format: functional
MCF7 [3] = test: Induction of ROS production in human MCF7 cells incubated for 3 to 24 hrs by immunofluorescence analysis; format: functional, cell-based; details: time 3-24 hrs
[4] = target: T1, Estrogen receptor (Homo sapiens) (UniProt P03372); test: Induction of estrogen receptor degradation in estradiol-stimulated human MCF7 cells assessed as decrease in TFF1 mRNA level incubated for 24 hrs by RT-qPCR analysis; format: cell-based; details: dose 1-10 µM
T1 sequence (whole entry): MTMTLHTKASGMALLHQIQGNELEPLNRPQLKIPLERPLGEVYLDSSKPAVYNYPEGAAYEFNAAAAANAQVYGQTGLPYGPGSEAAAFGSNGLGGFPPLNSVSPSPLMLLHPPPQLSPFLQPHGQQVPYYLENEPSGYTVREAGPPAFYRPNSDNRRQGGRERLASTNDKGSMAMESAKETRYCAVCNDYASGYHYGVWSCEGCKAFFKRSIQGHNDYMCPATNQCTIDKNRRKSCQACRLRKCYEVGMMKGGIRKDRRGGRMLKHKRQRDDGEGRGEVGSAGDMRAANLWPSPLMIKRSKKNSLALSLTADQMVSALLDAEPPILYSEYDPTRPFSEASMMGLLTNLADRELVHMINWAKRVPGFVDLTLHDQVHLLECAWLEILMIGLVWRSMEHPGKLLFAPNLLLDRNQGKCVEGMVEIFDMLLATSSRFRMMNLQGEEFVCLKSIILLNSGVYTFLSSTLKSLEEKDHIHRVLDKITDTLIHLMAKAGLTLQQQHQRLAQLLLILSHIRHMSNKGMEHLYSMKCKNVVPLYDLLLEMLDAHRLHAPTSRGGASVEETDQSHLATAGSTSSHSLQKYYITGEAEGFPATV

[5] = target: T1, Estrogen receptor (Homo sapiens); test: Induction of estrogen receptor degradation in estradiol-stimulated human MCF7 cells assessed as decrease in GREB1 mRNA level incubated for 24 hrs by RT-qPCR analysis; format: cell-based; details: dose 1-10 µM
[6] = target: T1, Estrogen receptor (Homo sapiens); test: Induction of estrogen receptor degradation in estradiol-stimulated human MCF7 cells assessed as decrease in PGR mRNA level incubated for 24 hrs by RT-qPCR analysis; format: cell-based; details: dose 1-10 µM

Row | SMILES | inhibition at 20 µM (Ishikawa) | IC50 (MCF7 [1]) | other results
1 | Cc1cc(C)cc(C(=O)c2cnc3cc(O)ccc3c2Oc2ccc(/C=C/C(=O)O)cc2)c1 | 30.9% | 4800 nM | 
2 | CCc1ccccc1C(=O)c1cnc2cc(O)ccc2c1Oc1ccc(/C=C/C(=O)O)cc1OC | 5.03% | 14000 nM | 
3 | CC/C(=C(\c1ccccc1)c1ccc(OCCN(C)C)cc1)c1ccccc1 [TAMOXIFEN] | 86.5% | 1560 nM | Activity (MCF7 [2]): 67.6%; Activity (MCF7 [3]): inactive
4 | O=C(O)/C=C/c1ccc(Oc2c(C(=O)c3ccccc3)cnc3cc(O)ccc23)cc1 | 11.8% | 1670 nM | 
5 | Cc1cccc(C)c1C(=O)c1cnc2cc(O)ccc2c1Oc1ccc(/C=C/C(=O)O)cc1 | 23.1% | 930 nM | 
6 | O=C(O)/C=C/c1ccc(Oc2c(C(=O)c3cccc(F)c3)cnc3cc(O)ccc23)cc1 | 26.4% | 2420 nM | 
7 | COc1ccc(C(=O)c2cnc3cc(O)ccc3c2Oc2ccc(/C=C/C(=O)O)cc2)cc1 | 61.2% | 3090 nM | 
8 | CCc1ccccc1C(=O)c1cnc2cc(O)ccc2c1Oc1ccc(/C=C/C(=O)O)cc1F | 4.11% | 670 nM | 
9 | O=C(O)/C=C/c1ccc(Oc2c(C(=O)c3ccc4occc4c3)cnc3cc(O)ccc23)cc1 | 13.3% | 1470 nM | 
10 | O=C(O)/C=C/c1ccc(Oc2c(C(=O)c3ccc(F)cc3)cnc3cc(O)ccc23)cc1 | 12.5% | 4870 nM | 
11 | Cc1ccc(C(=O)c2cnc3cc(O)ccc3c2Oc2ccc(/C=C/C(=O)O)cc2)c(C)c1 | -0.04% | 450 nM | 
12 | CCc1ccccc1C(=O)c1cnc2cc(O)ccc2c1Oc1ccc(/C=C/C(=O)O)cc1C | -6.14% | 450 nM | Activity [4]: Dose-Dependent Effect; Activity [5]: Dose-Dependent Effect; Activity [6]: Dose-Dependent Effect
13 | O=C(O)/C=C/c1ccc(Oc2c(C(=O)c3cccs3)cnc3cc(O)ccc23)cc1 | 10.4% | 7170 nM | 
14 | C[C@]12CC[C@@H]3c4ccc(O)cc4CC[C@H]3[C@@H]1CC[C@@H]2O |  |  | Activity (MCF7 [3]): inactive
15 | Cc1cc(Cl)ccc1C(=O)c1cnc2cc(O)ccc2c1Oc1ccc(/C=C/C(=O)O)cc1 | 24.9% | 370 nM | 
16 | O=C(O)/C=C/c1ccc(Oc2c(C(=O)c3ccc(C(F)(F)F)cc3)cnc3cc(O)ccc23)cc1 | -4.35% | 690 nM | 
17 | Cc1cc(F)cc(C)c1C(=O)c1cnc2cc(O)ccc2c1Oc1ccc(/C=C/C(=O)O)cc1 | 35.8% | 410 nM | 
18 | Cc1cc(F)ccc1C(=O)c1cnc2cc(O)ccc2c1Oc1ccc(/C=C/C(=O)O)cc1 | 15.1% | 420 nM | 
19 | CC(C)c1ccccc1C(=O)c1cnc2cc(O)ccc2c1Oc1ccc(/C=C/C(=O)O)cc1 | 23.8% | 580 nM | 
20 | O=C(O)/C=C/c1ccc(Oc2c(C(=O)c3ccccc3C(F)(F)F)cnc3cc(O)ccc23)cc1 | 27.5% | 370 nM | 
21 | O=C(O)/C=C/c1ccc(Oc2c(C(=O)c3ccc(OC(F)(F)F)cc3)cnc3cc(O)ccc23)cc1 | 20.4% | 1360 nM | 
22 | CCc1ccccc1C(=O)c1cnc2cc(O)ccc2c1Oc1ccc(/C=C/C(=O)O)c(C)c1 | 13.4% | 3570 nM | 
23 | CCc1ccccc1C(=O)c1cnc2cc(O)ccc2c1Oc1c(C)cc(/C=C/C(=O)O)cc1C | 11.5% |  | 
24 | CCc1ccccc1C(=O)c1cnc2cc(O)ccc2c1Oc1cc(C)c(/C=C/C(=O)O)c(C)c1 | 17.3% | 590 nM | 

Reference: ChEMBL document CHEMBL5584239, “Discovery of novel quinoline scaffold selective estrogen receptor degraders (SERDs) for treatment of ER positive breast cancer with enhanced antiproliferative bioactivity through immunogenic cell death (ICD) effects” (Eur J Med Chem, 2024)
